Results on ten compounds are retold here after US20240252488A1 (KOREA RESEARCH INSTITUTE OF CHEMICAL TECHNOLOGY, priority 2020, published 2024).

One assay relates to FADD−/− Jurkat cells. The experiment in a line: Necroptosis inhibition assay, TNF-α-induced necroptosis (CellTiter-Glo 2.0). The class given is cell-based, human. The following applies: TNF-α 15 ng/mL; for Necroptosis inhibition assay (Rescue %) 1 μM: compound 1 μM; for Necroptosis inhibition assay (Rescue %) 10 μM: compound 10 μM. The gist of the method:
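Tested at three fixed concentrations (0.1, 1, 10 μM final) with a 30-minute room-temperature preincubation ahead of 15 ng/mL TNF-α challenge lasting 20 to 24 hours. Inhibition rate and cytotoxicity derive from ATP luminescence.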

Assay [1] concerns the target T1, MLKL (Homo sapiens, UniProt Q8NB16).
T1 sequence (Q8NB16 1-471): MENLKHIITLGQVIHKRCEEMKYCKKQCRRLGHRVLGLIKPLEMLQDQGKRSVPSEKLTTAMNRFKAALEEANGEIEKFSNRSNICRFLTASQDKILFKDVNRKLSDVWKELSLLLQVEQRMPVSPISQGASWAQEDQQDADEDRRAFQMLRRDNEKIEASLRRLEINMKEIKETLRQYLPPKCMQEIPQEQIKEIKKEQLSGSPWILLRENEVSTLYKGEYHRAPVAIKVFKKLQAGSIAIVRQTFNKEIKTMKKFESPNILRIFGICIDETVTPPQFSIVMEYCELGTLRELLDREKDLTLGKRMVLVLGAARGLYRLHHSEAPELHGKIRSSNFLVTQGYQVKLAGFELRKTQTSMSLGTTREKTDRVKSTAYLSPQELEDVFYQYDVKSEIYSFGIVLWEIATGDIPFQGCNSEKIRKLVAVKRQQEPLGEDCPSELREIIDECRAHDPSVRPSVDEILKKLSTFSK
Description: Measurement of binding affinity with MLKL receptor (competitive binding assay, Kd). Details: made in house; host or cells: HEK 293 cell line (T7 phage in E. coli BL21-derived host is also described). The gist of the method: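 qPCR of MLKL eluted from liganded beads served as the read-out, from which Kd was derived. The protein was made in HEK 293 cells with a DNA tag, and test compounds competed with the bead-bound ligand at 0.9% final DMSO.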

In assay [2] the target is T1, MLKL. Description: MLKL degradation assay in HepG2 cell line (western blot). The class given is cell-based. Details: endogenous in cells; host or cells: HepG2 or HaCaT. Conditions: cell line not given; for Degradation assay (Degradation %) 1 μM: compound 1 μM; for Degradation assay (Degradation %) 10 μM: compound 10 μM. The gist of the method:
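Degradation is judged from MLKL band intensity on immunoblots of HepG2 lysates taken after 20-24 hours of compound at final 1 or 10 μM.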
In general terms: In western blotting, separated proteins are transferred to a membrane and probed.

`Nc1ncc(-c2cnn(C3CCN(C(=O)COC4CCN(C(=O)CNc5ccc6c(c5)C(=O)N(C5CCC(=O)NC5=O)C6=O)CC4)CC3)c2)nc1C(=O)O[C@@H](C(=O)Nc1ccc(F)cc1)c1ccccc1` (stereo partly drawn) [TDH-396, (R)-2-((4-fluorophenyl)amino)-2-oxo-1-phenylethyl 3-amino-6-(1-(1-(2-((1-((2-(2,6-dioxopiperidin-3-yl)-1,3-dioxoisoindolin-5-yl)glycyl)piperidin-4-yl)oxy)acetyl)piperidin-4-yl)-1H-pyrazol-4-yl)pyrazine-2-carboxylate]: in the assay with FADD−/− Jurkat cells, the “Necroptosis inhibition assay (Rescue %) 1 μM” value is given as 53.20% and the “Necroptosis inhibition assay (Rescue %) 10 μM” value came to 46.28%. This compound also had a Kd at MLKL [1] of 4.2 nM. Moreover, on MLKL [2], the “Degradation assay (Degradation %) 1 μM” value was 3.42% and the “Degradation assay (Degradation %) 10 μM” value was 88.49%.
`Nc1ncc(-c2cnn(C3CCN(C(=O)CCC4CCN(c5ccc6c(c5)C(=O)N(C5CCC(=O)NC5=O)C6=O)CC4)CC3)c2)nc1C(=O)O[C@@H](C(=O)Nc1ccc(F)cc1)c1ccccc1` (stereo partly drawn) [TDH-420, (R)-2-((4-fluorophenyl)amino)-2-oxo-1-phenylethyl 3-amino-6-(1-(1-(3-(1-(2-(2,6-dioxopiperidin-3-yl)-1,3-dioxoisoindolin-5-yl)piperidin-4-yl)propanoyl)piperidin-4-yl)-1H-pyrazol-4-yl)pyrazine-2-carboxylate]: in the assay on FADD−/− Jurkat cells (FADD−/− Jurkat cells), the “Necroptosis inhibition assay (Rescue %) 1 μM” value is 8.39% and the “Necroptosis inhibition assay (Rescue %) 10 μM” value stood at 2.00%. Moreover, the Kd at MLKL [1] worked out at 10 nM. Also, at MLKL [2], the “Degradation assay (Degradation %) 1 μM” value is listed as 74.57% and the “Degradation assay (Degradation %) 10 μM” value is 51.38%.
With `Nc1ncc(-c2cnn(C3CCN(CCC4CCN(C(=O)CNc5ccc6nnn(C7CCC(=O)NC7=O)c(=O)c6c5)CC4)CC3)c2)nc1C(=O)O[C@@H](C(=O)Nc1ccc(F)cc1)c1ccccc1` (stereo partly drawn) [TDH-334, (R)-2-((4-fluorophenyl)amino)-2-oxo-1-phenylethyl 3-amino-6-(1-(1-(2-(1-((3-(2,6-dioxopiperidin-3-yl)-4-oxo-3,4-dihydrobenzo[d][1,2,3]triazin-6-yl)glycyl)piperidin-4-yl)ethyl)piperidin-4-yl)-1H-pyrazol-4-yl)pyrazine-2-carboxylate], in the assay with FADD−/− Jurkat cells (compound 1.1 µM), the “Necroptosis inhibition assay (Rescue %) 1.1 μM” value is 86.58 (1.1 µM) %. Moreover, in the assay with FADD−/− Jurkat cells, the “Necroptosis inhibition assay (Rescue %) 10 μM” value is 50.45%. The compound further yielded a Kd on MLKL [1] of 0.82 nM. Moreover, on MLKL [2], the “Degradation assay (Degradation %) 1 μM” value was found to be 75.98% and the “Degradation assay (Degradation %) 10 μM” value is recorded as 83.61%.
Consider `Nc1ncc(-c2cnn(C3CCN(CCCN4CCN(C(=O)c5ccc6c(c5)CN(C5CCC(=O)NC5=O)C6=O)CC4)CC3)c2)nc1C(=O)O[C@@H](C(=O)Nc1ccc(F)cc1)c1ccccc1` (stereo partly drawn) [TDH-530, (R)-2-((4-fluorophenyl)amino)-2-oxo-1-phenylethyl 3-amino-6-(1-(1-(3-(4-(2-(2,6-dioxopiperidin-3-yl)-1-oxoisoindoline-5-carbonyl)piperazin-1-yl)propyl)piperidin-4-yl)-1H-pyrazol-4-yl)pyrazine-2-carboxylate], for which, in the assay with FADD−/− Jurkat cells (FADD−/− Jurkat cells), the “Necroptosis inhibition assay (Rescue %) 1 μM” value turned out to be 29.18% and the “Necroptosis inhibition assay (Rescue %) 10 μM” value stood at 30.78%. This compound also registered a dissociation constant (Kd) on MLKL [1] of 0.21 nM. On MLKL [2], the “Degradation assay (Degradation %) 1 μM” value came to 54.30% and the “Degradation assay (Degradation %) 10 μM” value is recorded as 61.10%.
With `Nc1ncc(-c2cnn(C3CCN(C[C@H]4CC[C@H](CNC(=O)CNc5ccc6c(c5)C(=O)N(C5CCC(=O)NC5=O)C6=O)CC4)CC3)c2)nc1C(=O)O[C@@H](C(=O)Nc1ccc(F)cc1)c1ccccc1` (stereo partly drawn) [TDH-348, (R)-2-((4-fluorophenyl)amino)-2-oxo-1-phenylethyl 3-amino-6-(1-(1-(((1r,4r)-4-((2-((2-(2,6-dioxopiperidin-3-yl)-1,3-dioxoisoindolin-5-yl)amino)acetamido)methyl)cyclohexyl)methyl)piperidin-4-yl)-1H-pyrazol-4-yl)pyrazine-2-carboxylate], in the assay with FADD−/− Jurkat cells, the “Necroptosis inhibition assay (Rescue %) 1 μM” value was 61.43% and the “Necroptosis inhibition assay (Rescue %) 10 μM” value came out at 29.04%. Moreover, the dissociation constant Kd on MLKL [1] amounted to 1.6 nM. Besides, on MLKL [2], the “Degradation assay (Degradation %) 1 μM” value is given as 48.66% and the “Degradation assay (Degradation %) 10 μM” value came to 81.15%.
For `Nc1ncc(-c2cnn(C3CCN(C(=O)c4cn(C5CCN(C(=O)C6CCN(c7ccc8c(c7)C(=O)N(C7CCC(=O)NC7=O)C8=O)CC6)CC5)cn4)CC3)c2)nc1C(=O)O[C@@H](C(=O)Nc1ccc(F)cc1)c1ccccc1` (stereo partly drawn) [TDH-363, (R)-2-((4-fluorophenyl)amino)-2-oxo-1-phenylethyl 3-amino-6-(1-(1-(1-(1-(1-(2-(2,6-dioxopiperidin-3-yl)-1,3-dioxoisoindolin-5-yl)piperidine-4-carbonyl)piperidin-4-yl)-1H-imidazole-4-carbonyl)piperidin-4-yl)-1H-pyrazol-4-yl)pyrazine-2-carboxylate] the same measures were 32.65%, 27.11%, 2.9 nM, 76.83% and 69.84%.
Regarding `Nc1ncc(-c2cnn(C3CCN(C(=O)C4CCN(C(=O)CC5CCN(c6ccc7c(c6)C(=O)N(C6CCC(=O)NC6=O)C7=O)CC5)CC4)CC3)c2)nc1C(=O)O[C@@H](C(=O)Nc1ccc(F)cc1)c1ccccc1` (stereo partly drawn) [TDH-375, (R)-2-((4-fluorophenyl)amino)-2-oxo-1-phenylethyl 3-amino-6-(1-(1-(1-(2-(1-(2-(2,6-dioxopiperidin-3-yl)-1,3-dioxoisoindolin-5-yl)piperidin-4-yl)acetyl)piperidine-4-carbonyl)piperidin-4-yl)-1H-pyrazol-4-yl)pyrazine-2-carboxylate], in the assay with FADD−/− Jurkat cells, the “Necroptosis inhibition assay (Rescue %) 1 μM” value was 30.67% and the “Necroptosis inhibition assay (Rescue %) 10 μM” value was 20.44%. The compound further returned a Kd on MLKL [1] of 2.3 nM. Further, on MLKL [2], the “Degradation assay (Degradation %) 1 μM” value came out at 93.86% and the “Degradation assay (Degradation %) 10 μM” value was determined as 86.43%.
Consider `COc1ccc(C(=O)N2CCC3(CC2)CC(N2CCC(CCN4CCC(n5cc(-c6cnc(N)c(C(=O)O[C@@H](C(=O)Nc7ccc(F)cc7)c7ccccc7)n6)cn5)CC4)CC2)C3)cc1N1CCC(=O)NC1=O` [TDH-504, (R)-2-((4-fluorophenyl)amino)-2-oxo-1-phenylethyl 3-amino-6-(1-(1-(2-(1-(7-(3-(2,4-dioxotetrahydropyrimidin-1(2H)-yl)-4-methoxybenzoyl)-7-azaspiro[3.5]nonan-2-yl)piperidin-4-yl)ethyl)piperidin-4-yl)-1H-pyrazol-4-yl)pyrazine-2-carboxylate], for which, in the assay with FADD−/− Jurkat cells (FADD−/− Jurkat cells), the “Necroptosis inhibition assay (Rescue %) 1 μM” value is 94.61% and the “Necroptosis inhibition assay (Rescue %) 10 μM” value came out at 33.71%. The same compound returned a Kd at MLKL [1] of 0.23 nM. In addition, on MLKL [2], the “Degradation assay (Degradation %) 1 μM” value is recorded as 93.87% and the “Degradation assay (Degradation %) 10 μM” value is given as 94.41%.
For the compound `Nc1ncc(-c2cnn(C3CCN(CC4CCN(CC5CCN(C(=O)CNc6ccc7c(c6)C(=O)N(C6CCC(=O)NC6=O)C7=O)CC5)CC4)CC3)c2)nc1C(=O)O[C@@H](C(=O)Nc1ccc(F)cc1)c1ccccc1` (stereo partly drawn) [TDH-426, (R)-2-((4-fluorophenyl)amino)-2-oxo-1-phenylethyl 3-amino-6-(1-(1-((1-((1-((2-(2,6-dioxopiperidin-3-yl)-1,3-dioxoisoindolin-5-yl)glycyl)piperidin-4-yl)methyl)piperidin-4-yl)methyl)piperidin-4-yl)-1H-pyrazol-4-yl)pyrazine-2-carboxylate], in the assay on FADD−/− Jurkat cells (FADD−/− Jurkat cells), the “Necroptosis inhibition assay (Rescue %) 1 μM” value came to 55.42%. At MLKL [1], the Kd turned out to be 1.2 nM. At MLKL [2], the “Degradation assay (Degradation %) 1 μM” value is on record as 18.62% and the “Degradation assay (Degradation %) 10 μM” value turned out to be 57.41%.
For the compound `COc1ccc(C(=O)N2CCC3(CC2)CC(N2CCC(CN4CCC(n5cc(-c6cnc(N)c(C(=O)O[C@@H](C(=O)Nc7ccc(F)cc7)c7ccccc7)n6)cn5)CC4)CC2)C3)cc1N1CCC(=O)NC1=O` [TDH-503, (R)-2-((4-fluorophenyl)amino)-2-oxo-1-phenylethyl 3-amino-6-(1-(1-((1-(7-(3-(2,4-dioxotetrahydropyrimidin-1(2H)-yl)-4-methoxybenzoyl)-7-azaspiro[3.5]nonan-2-yl)piperidin-4-yl)methyl)piperidin-4-yl)-1H-pyrazol-4-yl)pyrazine-2-carboxylate], in the assay with FADD−/− Jurkat cells (FADD−/− Jurkat cells), the “Necroptosis inhibition assay (Rescue %) 1 μM” value was determined as 94.80% and the “Necroptosis inhibition assay (Rescue %) 10 μM” value worked out at 14.61%. For the same compound, at MLKL [1], binding was put at a Kd of 0.44 nM. Also, on MLKL [2], the “Degradation assay (Degradation %) 1 μM” value is 93.09%.

For orientation: Kd means the concentration at which binding is half-saturated. A high value points to weaker binding.
